Results from ChEMBL document CHEMBL3217700, “Synthesis and SAR studies of benzimidazole derivatives as melanin concentrating hormone receptor 1 (MCHR1) antagonists: Focus to detune hERG inhibition” (Medchemcomm, 2011).

Tests used:
[1] = biological target: T1, Melanin-concentrating hormone receptor 1 (Homo sapiens, UniProt Q99705); assay: Displacement of [125I]MCH from human recombinant MCHR1 expressed CHO-K1 cell membrane by SPA-YSI assay; assay type: cell membranes
[2] = biological target: T1, Melanin-concentrating hormone receptor 1; assay: Antagonist activity at MCHR1 (unknown origin) assessed as IP3 levels by cell-based functional assay
hERG (KCNH2) = hERG (KCNH2) (Homo sapiens, UniProt Q12809); assay: Inhibition of human ERG expressed in HEK293 cells at 1 uM after 5 mins by patch clamp assay; assay type: cell-based; details: HEK293 cells that express hERG
Chain of hERG (KCNH2) (Q12809 whole entry): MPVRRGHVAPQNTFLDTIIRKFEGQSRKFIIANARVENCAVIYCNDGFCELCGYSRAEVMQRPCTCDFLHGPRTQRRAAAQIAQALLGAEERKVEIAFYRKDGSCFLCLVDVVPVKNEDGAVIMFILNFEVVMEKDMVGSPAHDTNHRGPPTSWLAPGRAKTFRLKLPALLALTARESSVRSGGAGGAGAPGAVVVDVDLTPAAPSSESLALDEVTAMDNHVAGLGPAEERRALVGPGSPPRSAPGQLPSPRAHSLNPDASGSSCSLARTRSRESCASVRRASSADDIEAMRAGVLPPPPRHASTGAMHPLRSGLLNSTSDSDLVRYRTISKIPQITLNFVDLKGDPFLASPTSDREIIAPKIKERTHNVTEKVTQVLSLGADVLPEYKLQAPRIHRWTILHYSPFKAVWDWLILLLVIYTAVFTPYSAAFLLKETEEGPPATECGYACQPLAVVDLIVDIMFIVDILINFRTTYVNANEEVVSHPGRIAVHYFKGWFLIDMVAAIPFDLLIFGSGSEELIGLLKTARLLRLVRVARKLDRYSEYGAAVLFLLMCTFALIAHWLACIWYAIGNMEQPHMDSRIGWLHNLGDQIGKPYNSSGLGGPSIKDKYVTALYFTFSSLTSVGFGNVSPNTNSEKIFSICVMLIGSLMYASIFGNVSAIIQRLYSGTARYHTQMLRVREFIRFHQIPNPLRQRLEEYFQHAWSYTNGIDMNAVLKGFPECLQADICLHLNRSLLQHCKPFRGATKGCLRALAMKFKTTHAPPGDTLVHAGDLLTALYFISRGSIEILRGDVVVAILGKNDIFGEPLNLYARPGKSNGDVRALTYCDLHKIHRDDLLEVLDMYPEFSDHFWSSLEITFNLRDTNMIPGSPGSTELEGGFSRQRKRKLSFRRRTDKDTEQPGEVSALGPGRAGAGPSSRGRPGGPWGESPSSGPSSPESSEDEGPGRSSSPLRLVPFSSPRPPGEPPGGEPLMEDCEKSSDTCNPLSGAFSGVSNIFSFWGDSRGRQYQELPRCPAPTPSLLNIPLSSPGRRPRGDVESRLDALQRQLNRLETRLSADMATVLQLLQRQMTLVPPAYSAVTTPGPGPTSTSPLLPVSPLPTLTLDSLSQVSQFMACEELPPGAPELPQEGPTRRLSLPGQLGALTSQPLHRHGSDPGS

Homo sapiens = organism: Homo sapiens; assay: Selectivity ratio of IC50 for human ERG to IC50 for MCHR1 (unknown origin) assessed as IP3 levels by cell-based functional assay
[3] = biological target: Voltage-gated inwardly rectifying potassium channel KCNH2 (Homo sapiens, UniProt Q12809); assay: Inhibition of human ERG expressed in HEK293 cells after 5 mins by patch clamp assay; assay type: cell-based
Chain of Voltage-gated inwardly rectifying potassium channel KCNH2 (Q12809 whole entry): as above

T1 sequence (Q99705 whole entry): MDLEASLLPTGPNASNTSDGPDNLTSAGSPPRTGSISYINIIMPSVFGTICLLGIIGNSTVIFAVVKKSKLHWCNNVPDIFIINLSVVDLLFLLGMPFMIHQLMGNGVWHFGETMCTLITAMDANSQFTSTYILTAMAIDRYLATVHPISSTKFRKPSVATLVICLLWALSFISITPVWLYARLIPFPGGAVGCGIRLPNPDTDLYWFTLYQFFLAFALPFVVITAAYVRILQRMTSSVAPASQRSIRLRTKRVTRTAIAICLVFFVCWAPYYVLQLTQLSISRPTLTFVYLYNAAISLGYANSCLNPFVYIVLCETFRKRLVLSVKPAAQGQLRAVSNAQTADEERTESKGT

| Compound | IC50 [1] [µM] | IC50 [2] [µM] | inhibition at 5 min, 1 µM (hERG (KCNH2)) [%] | Ratio IC50 (Homo sapiens) | IC50 [3] [µM] |
| --- | --- | --- | --- | --- | --- |
| CC(=O)Nc1cccc(C2CCN(Cc3ccc(C(=O)c4nc5ccccc5n4C4CC4)cc3)CC2)c1 | 0.271 | 0.412 |  |  |  |
| CC(=O)Nc1cccc(C2CCN(Cc3ccc(C(=O)c4nc5cccnc5n4-c4ccc(F)cc4)cc3)CC2)c1 | 0.014 | 0.053 | 58 |  |  |
| CC(=O)Nc1cccc(C2CCN(Cc3ccc(C(=O)c4nc5c(F)cc(F)cc5n4-c4ccc(F)cc4)cc3)CC2)c1 | 0.015 | 0.043 | 70 |  |  |
| CC(=O)Nc1cccc(C2CCN(CCCCc3nc4ccccc4n3-c3ccc(F)cc3)CC2)c1 |  |  |  | 10 |  |
| CC(=O)Nc1cccc(C2CCN(Cc3ccc(C(=O)c4nc5ccccc5n4-c4ccc(F)cc4)cc3C(F)(F)F)CC2)c1 | 3.25 | > 10 |  |  |  |
| CC(=O)Nc1cccc(C2CCN(Cc3ccc(Cc4nc5ccccc5n4-c4ccc(F)cc4)cc3C#N)CC2)c1 | 0.01 | 0.003 | 42 | 131 |  |
| CC(=O)Nc1cccc(C2CCN(C(C)c3ccc(C(=O)c4nc5ccccc5n4-c4ccc(F)cc4)cc3)CC2)c1 (stereo unspecified) | 0.15 | 0.259 |  |  |  |
| CC(=O)Nc1cccc(C2CCN(Cc3ccc(Cc4nc5ccccc5n4-c4ccc(F)cc4)cc3)CC2)c1 | 0.0009 | 0.003 | 98 |  |  |
| CC(=O)Nc1cccc(C2CCN(Cc3ccc(C(=O)c4nc5ccccc5n4-c4ccc(F)cc4)cn3)CC2)c1 | 0.027 | 0.066 | 27 |  |  |
| CC(=O)Nc1cccc(C2CCN(CCCNc3nc4ccccc4n3-c3ccc(F)cc3)CC2)c1 |  |  |  | 3 |  |
| CC(=O)Nc1cccc(C2CCN(Cc3ccc(C(=O)c4nc5cnccc5n4-c4ccc(F)cc4)cc3)CC2)c1 | 0.012 | 0.059 | 36 |  |  |
| CC(=O)Nc1cccc(C2CCN(Cc3ccc(C(=O)c4nc5ccccc5n4-c4ccc(F)cc4)cc3Cl)CC2)c1 | 0.184 | 0.336 |  |  |  |

More lines, in order of falling IC50 [1], values ahead:

| IC50 [1] [µM] | IC50 [2] [µM] | Compound | inhibition at 5 min, 1 µM (hERG (KCNH2)) [%] | Ratio IC50 (Homo sapiens) | IC50 [3] [µM] |
| --- | --- | --- | --- | --- | --- |
| 1 | 1.37 | CC(=O)Nc1cccc(C2CCN(Cc3ccc(C(=O)c4nc5ccccc5n4-c4ccc(C(F)(F)F)cc4)cc3)CC2)c1 |  |  |  |
| 0.651 | 0.385 | CC(=O)Nc1cccc(C2CCN(Cc3ccc(C(=O)c4nc5ccccc5n4-c4ccc(F)cc4)cc3C#N)CC2)c1 |  |  |  |
| 0.289 | 0.817 | CC(=O)Nc1cccc(C2CCN(Cc3ccc(C(=O)c4nc5ccccc5n4C)cc3)CC2)c1 |  |  |  |
| 0.172 | 0.26 | CC(=O)Nc1cccc(C2CCN(Cc3ccc(C(=O)c4nc5ccccc5n4-c4ccc(C#N)cc4)cc3)CC2)c1 |  |  |  |
| 0.138 | 0.131 | CC(=O)Nc1cccc(C2CCN(Cc3ccc(C(=O)c4nc5ccccc5n4C(C)C)cc3)CC2)c1 |  |  |  |
| 0.055 | 0.047 | CC(=O)Nc1cccc(C2CCN(Cc3ccc(C(=O)c4nc5ccccc5n4C4CCOCC4)cc3)CC2)c1 |  | 24 | 1.2 |
| 0.046 | 0.08 | CC(=O)Nc1cccc(C2CCN(Cc3ccc(C(=O)c4nc5ccccc5n4-c4ccc(F)cc4)cc3F)CC2)c1 |  |  |  |
| 0.034 | 0.217 | CC(=O)Nc1cccc(C2CCN(Cc3ccc(C(=O)c4nc5ccccc5n4-c4ccc(Cl)cc4)cc3)CC2)c1 |  | 26 | 1.7 |
| 0.022 | 0.096 | CC(=O)Nc1cccc(C2CCN(Cc3ccc(C(=O)c4nc(C)c(C)n4-c4ccc(F)cc4)cc3)CC2)c1 |  | 18 | 1.7 |
| 0.011 | 0.037 | CC(=O)Nc1cccc(C2CCN(Cc3ccc(C(=O)c4nc5ccccc5n4-c4ccc(F)cc4)nc3)CC2)c1 | 37 |  |  |
| 0.011 | 0.015 | CC(=O)Nc1cccc(C2CCN(Cc3ccc(C(=O)c4nc5ccccc5n4-c4ccc(F)cc4)cc3)CC2)c1 |  |  |  |
| 0.008 | 0.053 | CC(=O)Nc1cccc(C2CCN(Cc3ccc(Oc4nc5ccccc5n4-c4ccc(F)cc4)cc3)CC2)c1 | 80 |  |  |
